SMILES strings stand for the structures.

This note sets out measurements from US10576062B2, “Carbamoyloxymethyl triazole cyclohexyl acids as LPA antagonists” (Bristol-Myers Squibb Company, priority 2016, dated 2020).

One assay deals with T1, human LPA1 (Homo sapiens, UniProt Q92633).
T1 construct: expressed in transfected cells; host or cells: Chinese hamster ovary (CHO) cells
T1 sequence (Q92633 whole entry): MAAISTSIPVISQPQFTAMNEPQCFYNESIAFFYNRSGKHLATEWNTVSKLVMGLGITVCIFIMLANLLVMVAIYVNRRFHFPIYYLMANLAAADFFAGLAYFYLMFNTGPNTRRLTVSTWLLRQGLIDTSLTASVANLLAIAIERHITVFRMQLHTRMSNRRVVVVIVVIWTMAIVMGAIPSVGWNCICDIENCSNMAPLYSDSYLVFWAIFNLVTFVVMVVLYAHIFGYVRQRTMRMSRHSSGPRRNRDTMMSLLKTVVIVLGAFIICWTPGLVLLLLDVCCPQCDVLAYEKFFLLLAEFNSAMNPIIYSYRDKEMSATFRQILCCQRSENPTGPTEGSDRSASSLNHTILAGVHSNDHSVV
The assay can be described thus: LPA1 functional antagonist assay (LPA-induced calcium flux). It is filed as cell-based. Conditions: CHO cells overexpressing human LPA1; inhibition of calcium flux induced by 10 nM LPA; read-out: hLPA1 IC50. The essentials:
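CHO cells overexpressing human LPA1, loaded with calcium dye 30 min at 37° C, were preincubated 20 min at room temperature with compound (0.08 nM–5 μM, 0.5% DMSO) in HBSS/20 mM HEPES/0.1% fatty acid-free BSA.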
(Calcium flux is commonly read through the fluorescence of an indicator in the cells.)
As to `CCCCN(C)C(=O)OCc1c(-c2ccc(O[C@H]3CCC[C@H](C(=O)O)C3)c(C(F)(F)F)n2)nnn1C` [Example 275, (1S,3S)-3-((6-(5-(((butyl(methyl)carbamoyl)oxy)methyl)-1-methyl-1H-1,2,3-triazol-4-yl)-2-(trifluoromethyl)pyridin-3-yl)oxy)cyclohexane-1-carboxylic acid], the concentration for half-maximal inhibition (IC50) (usually the point on the concentration scale where inhibition reaches its midpoint) amounted to 5.6 nM.

With `CN(C(=O)OCc1c(-c2ccc(O[C@H]3CCC[C@H](C(=O)O)C3)c(C(F)(F)F)n2)nnn1C)C1CCCC1` [Example 276, (1S,3S)-3-((6-(5-(((cyclopentyl(methyl)carbamoyl)oxy)methyl)-1-methyl-1H-1,2,3-triazol-4-yl)-2-(trifluoromethyl)pyridin-3-yl)oxy)cyclohexane-1-carboxylic acid], the IC50 is 15 nM.

`CCCN(C)C(=O)OCc1c(-c2ccc(O[C@H]3CCC[C@H](C(=O)O)C3)c(C(F)F)n2)nnn1C` [Example 277, (1S,3S)-3-((2-(difluoromethyl)-6-(1-methyl-5-(((methyl(propyl)carbamoyl)oxy)methyl)-1H-1,2,3-triazol-4-yl)pyridin-3-yl)oxy)cyclohexane-1-carboxylic acid]: the 50% inhibitory concentration (IC50) was 35 nM.

Turning to `CCCCN(C)C(=O)OCc1c(-c2ccc(O[C@H]3CCC[C@H](C(=O)O)C3)c(C(F)F)n2)nnn1C` [Example 278, (1S,3S)-3-((6-(5-(((butyl(methyl)carbamoyl)oxy)methyl)-1-methyl-1H-1,2,3-triazol-4-yl)-2-(difluoromethyl)pyridin-3-yl)oxy)cyclohexane-1-carboxylic acid], the 50% inhibitory concentration (IC50) worked out at 22 nM.

For the compound `CN(CC1CC1)C(=O)OCc1c(-c2ccc(O[C@H]3CCC[C@H](C(=O)O)C3)c(C(F)F)n2)nnn1C` [Example 279, (1S,3S)-3-((6-(5-((((cyclopropylmethyl)(methyl)carbamoyl)oxy)methyl)-1-methyl-1H-1,2,3-triazol-4-yl)-2-(difluoromethyl)pyridin-3-yl)oxy)cyclohexane-1-carboxylic acid], the IC50 is 21 nM.

For `CN(C(=O)OCc1c(-c2ccc(O[C@H]3CCC[C@H](C(=O)O)C3)c(C(F)F)n2)nnn1C)C1CCC1` [Example 280, (1S,3S)-3-((6-(5-(((cyclobutyl(methyl)carbamoyl)oxy)methyl)-1-methyl-1H-1,2,3-triazol-4-yl)-2-(difluoromethyl)pyridin-3-yl)oxy)cyclohexane-1-carboxylic acid], the concentration for half-maximal inhibition (IC50) was found to be 22 nM.

For `CN(C(=O)OCc1c(-c2ccc(O[C@H]3CCC[C@H](C(=O)O)C3)c(C(F)F)n2)nnn1C)C1CCCC1` [Example 281, (1S,3S)-3-((6-(5-(((cyclopentyl(methyl)carbamoyl)oxy)methyl)-1-methyl-1H-1,2,3-triazol-4-yl)-2-(difluoromethyl)pyridin-3-yl)oxy)cyclohexane-1-carboxylic acid], the 50% inhibitory concentration (IC50) came to 35 nM.

Take `CN(Cc1ccccc1)C(=O)OCc1c(-c2ccc(O[C@H]3CCC[C@H](C(=O)O)C3)c(C(F)F)n2)nnn1C` [Example 282, (1S,3S)-3-((6-(5-(((benzyl(methyl)carbamoyl)oxy)methyl)-1-methyl-1H-1,2,3-triazol-4-yl)-2-(difluoromethyl)pyridin-3-yl)oxy)cyclohexane-1-carboxylic acid]: the IC50 is 19 nM.

For `CCCN(C)C(=O)OCc1c(-c2ccc(O[C@H]3CCC[C@H](C(=O)O)C3)c(COC)n2)nnn1C` [Example 283, (1S,3S)-3-((2-(methoxymethyl)-6-(1-methyl-5-(((methyl(propyl)carbamoyl)oxy)methyl)-1H-1,2,3-triazol-4-yl)pyridin-3-yl)oxy)cyclohexane-1-carboxylic acid], the IC50 worked out at 475 nM.

In the case of `CCCCN(C)C(=O)OCc1c(-c2ccc(O[C@H]3CCC[C@H](C(=O)O)C3)c(COC)n2)nnn1C` [Example 284], the 50% inhibitory concentration (IC50) was 48 nM.

Regarding `COCc1nc(-c2nnn(C)c2COC(=O)N(C)CC2CC2)ccc1O[C@H]1CCC[C@H](C(=O)O)C1` [Example 285, (1S,3S)-3-((6-(5-((((cyclopropylmethyl)(methyl)carbamoyl)oxy)methyl)-1-methyl-1H-1,2,3-triazol-4-yl)-2-(methoxymethyl)pyridin-3-yl)oxy)cyclohexane-1-carboxylic acid], the IC50 worked out at 1010 nM.

Turning to `COCc1nc(-c2nnn(C)c2COC(=O)N(C)C2CCC2)ccc1O[C@H]1CCC[C@H](C(=O)O)C1` [Example 286, (1S,3S)-3-((6-(5-(((cyclobutyl(methyl)carbamoyl)oxy)methyl)-1-methyl-1H-1,2,3-triazol-4-yl)-2-(methoxymethyl)pyridin-3-yl)oxy)cyclohexane-1-carboxylic acid], the half-inhibitory concentration (IC50) amounted to 92 nM.

Consider `COCc1nc(-c2nnn(C)c2COC(=O)N(C)C2CCCC2)ccc1O[C@H]1CCC[C@H](C(=O)O)C1` [Example 287, (1S,3S)-3-((6-(5-(((cyclopentyl(methyl)carbamoyl)oxy)methyl)-1-methyl-1H-1,2,3-triazol-4-yl)-2-(methoxymethyl)pyridin-3-yl)oxy)cyclohexane-1-carboxylic acid], for which the IC50 is 118 nM.

As to `[2H]C([2H])([2H])N(CCC)C(=O)OCc1c(-c2ccc(O[C@H]3CCC[C@H](C(=O)O)C3)c(C)n2)nnn1C` [Example 288, (1S,3S)-3-((2-methyl-6-(1-methyl-5-((((methyl-d3)(propyl)carbamoyl)oxy)methyl)-1H-1,2,3-triazol-4-yl)pyridin-3-yl)oxy)cyclohexane-1-carboxylic acid], the concentration for half-maximal inhibition (IC50) was 29 nM.

As for `CN(CC1CC1)C(=O)OCc1c(-c2ccc(O[C@H]3CCC[C@H](C(=O)O)C3)c(C#N)n2)nnn1C` [Example 289, (1S,3S)-3-((2-cyano-6-(5-((((cyclopropylmethyl)(methyl)carbamoyl)oxy)methyl)-1-methyl-1H-1,2,3-triazol-4-yl)pyridin-3-yl)oxy)cyclohexane-1-carboxylic acid], the 50% inhibitory concentration (IC50) is 40 nM.

For `CN(Cc1ccccc1)C(=O)OCc1c(-c2ccc(O[C@H]3CCC[C@H](C(=O)O)C3)c(C#N)n2)nnn1C` [Example 290, (1S,3S)-3-((6-(5-(((benzyl(methyl)carbamoyl)oxy)methyl)-1-methyl-1H-1,2,3-triazol-4-yl)-2-cyanopyridin-3-yl)oxy)cyclohexane-1-carboxylic acid], the IC50 is 2 nM.

As for `CCCCN(C)C(=O)OCc1c(-c2ccc(O[C@H]3CCC[C@H](C(=O)O)C3)c(C#N)n2)nnn1C` [Example 291, (1S,3S)-3-((6-(5-(((butyl(methyl)carbamoyl)oxy)methyl)-1-methyl-1H-1,2,3-triazol-4-yl)-2-cyanopyridin-3-yl)oxy)cyclohexane-1-carboxylic acid], the IC50 amounted to 15 nM.

In the case of `CN(CC1CCC1)C(=O)OCc1c(-c2ccc(O[C@H]3CCC[C@H](C(=O)O)C3)c(C#N)n2)nnn1C` [Example 292, (1S,3S)-3-((2-cyano-6-(5-((((cyclobutylmethyl)(methyl)carbamoyl)oxy)methyl)-1-methyl-1H-1,2,3-triazol-4-yl)pyridin-3-yl)oxy)cyclohexane-1-carboxylic acid], the 50% inhibitory concentration (IC50) was determined as 20 nM.

Regarding `CN(C(=O)OCc1c(-c2ccc(O[C@H]3CCC[C@H](C(=O)O)C3)c(C#N)n2)nnn1C)C1CCC1` [Example 293, (1S,3S)-3-((2-cyano-6-(5-(((cyclobutyl(methyl)carbamoyl)oxy)methyl)-1-methyl-1H-1,2,3-triazol-4-yl)pyridin-3-yl)oxy)cyclohexane-1-carboxylic acid], the IC50 was determined as 23 nM.

Take `CN(C(=O)OCc1c(-c2ccc(O[C@H]3CCC[C@H](C(=O)O)C3)c(C#N)n2)nnn1C)C1CCCC1` [Example 294, (1S,3S)-3-((2-cyano-6-(5-(((cyclopentyl(methyl)carbamoyl)oxy)methyl)-1-methyl-1H-1,2,3-triazol-4-yl)pyridin-3-yl)oxy)cyclohexane-1-carboxylic acid]: the IC50 is 15 nM.

Staying with this assay, now noted: read-out: hLPA1 IC50.
With `C[C@H](C1CC1)N(C)C(=O)OCc1c(-c2ccc(O[C@H]3CCC[C@H](C(=O)O)C3)cc2)nnn1C` [Example 51, (1S,3S)-3-(4-(5-(((((R)-1-cyclopropylethyl)(methyl)carbamoyl)oxy)methyl)-1-methyl-1H-1,2,3-triazol-4-yl)phenoxy)cyclohexane-1-carboxylic acid], the concentration for half-maximal inhibition (IC50) amounted to 24 nM.

The test system of another assay is CD-1 female mice. In words: LPA challenge with plasma histamine evaluation (acute in vivo histamine assay). As to conditions: 3 mg/kg dose. Also on record: species or system mouse. The procedure:
LPA Challenge with Plasma Histamine Evaluation.
Compound is dosed orally p.o. 2 hours to CD-1 female mice prior to the LPA challenge. The mice are then dosed via tail vein (IV) with 0.15 mL of LPA in 0.1% BSA/PBS ([…]). Exactly 2 minutes following the LPA challenge, the mice are euthanized by decapitation and the trunk blood is collected. These samples are collectively centrifuged and individual 75 μL samples are frozen at −20° C. until the time of the histamine assay.
The plasma histamine analysis was run by standard EIA (Enzyme Immunoassay) methods. Plasma samples were thawed and diluted 1:30 in 0.1% BSA in PBS. The EIA protocol for histamine analysis as outlined by the manufacturer was followed (Histamine EIA, Oxford Biomedical Research, EA #31).
The LPA used in the assay is formulated as follows: LPA (1-oleoyl-2-hydroxy-sn-glycero-3-phosphate (sodium salt), 857130P, Avanti Polar Lipids) is prepared in 0.1% BSA/PBS for total concentration of 2 μg/μL. 13 mg of LPA is weighed and 6.5 mL 0.1% BSA added, vortexed and sonicated for ˜1 hour until a clear solution is achieved.
As for `C[C@H](C1CC1)N(C)C(=O)OCc1c(-c2ccc(O[C@H]3CCC[C@H](C(=O)O)C3)cc2)nnn1C` [Example 51, (1S,3S)-3-(4-(5-(((((R)-1-cyclopropylethyl)(methyl)carbamoyl)oxy)methyl)-1-methyl-1H-1,2,3-triazol-4-yl)phenoxy)cyclohexane-1-carboxylic acid], the “In vivo acute histamine assay: % histamine” value is given as −73%.

The assay is the same for the next values; noted with them: CD-1 mice, 3 mg/kg dose, p.o. 2 hours prior to LPA challenge.
On to `Cc1nc(-c2nnn(C)c2COC(=O)N(C)C2CCCC2)ccc1O[C@H]1CCC[C@H](C(=O)O)C1` [Example 1, (1S,3S)-3-((6-(5-(((cyclopentyl(methyl)carbamoyl)oxy)methyl)-1-methyl-1H-1,2,3-triazol-4-yl)-2-methylpyridin-3-yl)oxy)cyclohexane-1-carboxylic Acid], for which the “histamine (change of plasma histamine after LPA challenge)” value was −97%.

As to `CN(C(=O)OCc1c(-c2ccc(O[C@H]3CCC[C@H](C(=O)O)C3)cc2)nnn1C)C1CCCC1` [Example 5, (1S,3S)-3-(4-(5-(((Cyclopentyl(methyl)carbamoyl)oxy)methyl)-1-methyl-1H-1,2,3-triazol-4-yl)phenoxy)cyclohexanecarboxylic acid], the “histamine (change of plasma histamine after LPA challenge)” value is listed as −90%.
